The text below walks through data of patent EP3666770A1, “NOVEL HETEROCYCLIC COMPOUNDS AS CDK8/19 INHIBITORS” (Joint Stock Company "Biocad", priority 2017, dated 2019).

In one data set the test system is KG-1. The data set is described as follows: Cell-based antiproliferative test (AlamarBlue), KG-1. Particulars: Homo sapiens, KG-1; 120 h incubation; average values of several tests; read-out: KG-1 IC50, mkM. (In general: The colour change of resazurin is a common sign of viable cells or microbes.)
A short description of data set [1]: General cytotoxicity test on HepG2 cells. It counts as cell-based. Particulars: human, HepG2 cells; 72 h incubation; 200 to 0.78 µM; average values of several tests; read-out: Hep-G2 CC50, mkM. On the procedure: Cell viability was assessed using the above method. Table 6. […] The results are presented as average values of activity obtained in several tests.

The test system of a further data set is MV4-11. The data set is described as follows: Cell-based antiproliferative test (AlamarBlue), MV4-11. The note with it: Homo sapiens, MV4-11, 120 h, 120 h incubation; average values of several tests; read-out: MV-4-11 IC50, mkM.
Data set [2] can be described thus: Permeability through Caco-2 cell monolayer. The note with it: human, Caco-2; for Papp A→B at 2 h, 10 µM: A->B transfer, pH 6.5 -> pH 7.4, 2 hours at 37 °C; for efflux ratio at 2 h, 10 µM: efflux = Papp B-A / Papp A-B. It is filed as in vitro ADME. Put shortly:
(§1)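 Caco-2 monolayers grown for 21 days (Lucifer Yellow integrity check) received 10 µM compound apically at pH 6.5 (A→B) or basolaterally at pH 7.4 with 1% BSA on the basolateral side (B→A). After 2 h at 37 °C, both chambers were quantified by HPLC. Efflux ratio = Papp B→A / Papp A→B.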
(Caco-2 cells form a polarised layer with tight junctions and transporters.)

The nature of data set [3]: Chemical stability in human blood plasma. It counts as in vitro ADME. Particulars: pooled human blood plasma; 10 µM; 4 hours at 37°C; substance amount in % after thermostatting. Put shortly:
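Pooled plasma from ten healthy human donors; compound diluted from 10 mM DMSO stock to 10 µm final and incubated 4 h at 37°C. After acetonitrile protein precipitation, HPLC peak areas before and after incubation were compared; value is % compound remaining.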

The nature of data set [4]: Enzyme stability in human liver S9 fractions. It is filed as in vitro ADME. Particulars: pH 7.4; 0,5 mg/mL pooled human liver S9 fractions; 10 µM compound; 37°C; pH=7,4. The protocol: Measuring of candidates' enzyme stability enabled estimation of the stability of the present compounds towards the action of enzymes in human liver S9 fractions.
Enzyme degradation rate was measured by incubating the reaction mixture in a dry block thermostat at 37°C, said reaction mixture comprising 0,5 mg/mL of pooled human liver S9 fractions (XenoTech, USA, cat#H0610), 10 µM compound, 2 mM β-nicotinamide adenine dinucleotide (Carbosynth, UK, cat#NN10871) and 4 mM magnesium chloride in 0,1 M sodium-phosphate buffer, pH=7,4. The reaction was quenched with acetonitrile (100 µL of acetonitrile / 100 µL of the reaction mixture). After quenching, the samples were centrifuged at 10000 rpm for 10 minutes. Supernatant fluid was tested by chromatographic technique using Agilent1200 (Agilent, USA). Chromatographic analysis was performed in a gradient elution regime with a flow rate of 1 mL/min. A graph of the logarithm of substance's peak area as a function of time was made.

The test system of another data set is Caco-2 cell monolayer. The data set is described as follows: Permeability through Caco-2 cell monolayer. It counts as in vitro ADME. Particulars: efflux = Papp B-A / Papp A-B. Put shortly: as §1
The nature of data set [5]: Chemical stability in simulated gastric fluid (SGF). It is filed as physicochemical. Particulars: SGF without enzymes, pH=1,4; 10 µm; 2 hours at 37°C; substance amount in % after thermostatting. Put shortly: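 Compounds at […] (diluted from DMSO stock) were incubated for 2 h at 37 °C in enzyme-free simulated gastric fluid, pH=1,4. HPLC peak areas before and after incubation gave the % of compound remaining.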

The nature of data set [6]: Enzyme stability in human liver microsomes. It is filed as in vitro ADME. Particulars: pH 7.4; 0,5 mg/mL pooled human liver microsomes; 10 µM compound; 37°C; pH=7,4. Put shortly:
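Pooled human liver microsomes (0,5 mg/mL) incubated at 37 °C with 10 µM compound, 2 mM β-NAD and 4 mM MgCl2 in 0,1 M sodium phosphate, pH 7,4. Samples quenched with acetonitrile and analysed by HPLC. Elimination rate constant taken from the slope of log peak area versus time, giving t1/2 and CLint.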
A general note: Liver microsomes are vesicles of endoplasmic reticulum, rich in cytochrome P450 enzymes.

With `Cn1cc(-c2ccc(-c3cnc(N)c4ncc(C(=O)N5CCC5)cc34)cc2)cn1` [CDK8-3-26, (8-Amino-5-(4-(1-methyl-1H-pyrazol-4-yl)phenyl)-1,7-naphthyridin-3-yl) (azetidin-1-yl)methanone], the IC50 in the data set with KG-1 was determined as 0.003 µM. In addition, the CC50 at 72 h in data set [1] stood at 4.9 µM. In addition, in the data set on MV4-11, the IC50 is 0.011 µM. Moreover, in [2], the Papp A→B at 2 h, 10 µM came to 53.7 ×10⁻⁶ cm/s and the efflux ratio at 2 h, 10 µM is 0.3. In addition, the “Stability in blood plasma, %” value in [3] is recorded as 95.8%. Besides, the microsomal CLint at 10 µM in data set [4] was 3.25 µL/min/mg.
Consider `COCCN(C)C(=O)c1cnc2c(N)ncc(-c3ccc(-c4cnn(C)c4)cc3)c2c1` [CDK8-3-32], for which the IC50 in the data set on KG-1 was below 0.01 µM; with MV4-11, 0.01 µM. The CC50 at 72 h in data set [1] is 20.7 µM. The same compound gave a Papp A→B at 2 h, 10 µM in data set [2] of 24.9 ×10⁻⁶ cm/s. In addition, the efflux ratio at 2 h, 10 µM in [2] is 0.7. Moreover, the “Stability in blood plasma, %” value in [3] was 100%. In addition, the microsomal CLint at 10 µM in data set [4] came out at 3.8 µL/min/mg.
Regarding `Cn1cc(-c2ccc(-c3cnc(N)c4ncc(C(=O)NCCO)cc34)cc2)cn1` [CDK8-3-42, 8-Amino-N-(2-hydroxyethyl)-5-(4-(1-methyl-1H-pyrazol-4-yl)phenyl)-1,7-naphthyridine-3-carboxamide], the IC50 with KG-1 amounted to 0.009 µM. Moreover, the CC50 at 72 h in data set [1] was 15.9 µM. Besides, the IC50 with MV4-11 came to 0.028 µM. Besides, in [2], the Papp A→B at 2 h, 10 µM worked out at 11.8 ×10⁻⁶ cm/s and the efflux ratio at 2 h, 10 µM amounted to 1.6. The “Stability in blood plasma, %” value in data set [3] worked out at 100%. Moreover, the microsomal CLint at 10 µM in data set [4] is 0.5 µL/min/mg.
Consider `COc1cc(-c2cnc3[nH]cc(C(=O)c4ccccn4)c3c2)ccc1N(C)C` [CDK8-4-21, (5-(4-(Dimethylamino)-3-methoxyphenyl)-1H-pyrrolo[2,3-b]pyridin-3-yl)(pyridin-2-yl)methanone], for which, in [1], the CC50 at 72 h is 4.7 µM. For the same compound, the IC50 in the data set with MV4-11 was 0.74 µM. In data set [2], this compound had a Papp A→B at 2 h, 10 µM of 106 ×10⁻⁶ cm/s. The efflux with Caco-2 cell monolayer turned out to be 0.09. Also, in [5], the “Stability in SGF, %” value is given as 100%. In [3], the “Stability in blood plasma, %” value was found to be 100%.
In the case of `COc1ccc(-c2cnc3[nH]cc(C(=O)c4cccnc4)c3c2)c(C#N)c1` [CDK8-4-28, 5-Methoxy-2-(3-nicotinoyl-1H-pyrrolo[2,3-b]pyridin-5-yl) benzonitrile], the CC50 at 72 h in [1] was above 200 µM. The IC50 in the data set on MV4-11 is above 1 µM. In [2], this compound showed a Papp A→B at 2 h, 10 µM of 68.9 ×10⁻⁶ cm/s. In the data set with Caco-2 cell monolayer, the efflux was found to be 0.03. The “Stability in SGF, %” value in data set [5] is listed as 100%. The microsomal CLint at 10 µM in data set [6] amounted to 6.8 µL/min/mg. Moreover, in data set [3], the “Stability in blood plasma, %” value was found to be 100%.

The IC50 is the concentration needed to halve the response being measured. The CC50 is the concentration giving 50% cytotoxicity. Broadly, the Papp A→B is how fast a substance crosses the layer from the apical side. Lower therefore signals poor permeation. As usually defined, the efflux ratio is a quotient of directional permeabilities that is used to spot active efflux. In general, microsomal CLint refers to the rate of metabolic loss divided by the concentration.
